Literature values as cited in PubChem BioAssay AID1259409 (Chemical Carcinogenesis Research Information System (CCRIS), 2018).

Test system: rodent chemically induced tumor inhibition, incidence and multiplicity
Test: CCRIS tumor inhibitor studies
Settings: Carcinogen: 4-(METHYLNITROSAMINO)-1-(3-PYRIDYL)-1-BUTANONE, 64091-91-4, Dose [Inhibitor]: 0, Promoter: NONE USED

## S=C=NCCCCCCc1ccccc1
1 UMOL 1/D FOR 4 D ADMINISTERED PRIOR TO CARCINOGEN TREATMENT (STUDY DURATION: 116 D), Route [Inhibitor]: GAVAGE, Species: MOUSE, Strain/Sex: STRAIN A, Target Tissue: Type of Lesion: LUNG: ADENOMA, Dose [Carcinogen]: 10 UMOL ONCE 2 HR AFTER FINAL DOSE OF INHIBITOR
  tumour outcome (control, treated, inhibition, significance): 100%, 0%, 100%, p<0.05
5 UMOL 1/D FOR 4 D ADMINISTERED PRIOR TO CARCINOGEN TREATMENT (STUDY DURATION: 116 D), Route [Inhibitor]: GAVAGE, Species: MOUSE, Strain/Sex: STRAIN A, Target Tissue: Type of Lesion: LUNG: ADENOMA, Dose [Carcinogen]: 10 UMOL ONCE 2 HR AFTER FINAL DOSE OF INHIBITOR
  tumour outcome (control, treated, inhibition, significance): 100%, 5%, 95%, p<0.05
0.04 UMOL ONCE 2 HR PRIOR TO CARCINOGEN DOSE (STUDY DURATION: 16 WK), Route [Inhibitor]: GAVAGE, Species: MOUSE, Strain/Sex: STRAIN-A/FEMALE, Target Tissue: Type of Lesion: LUNG: ADENOMA, Dose [Carcinogen]: 10 UMOL IN 0.1 ML SALINE ONCE
  tumour outcome (control, treated, inhibition, significance): 100%, 100%, 0%, not significant
0.1 UMOL ONCE 2 HR PRIOR TO CARCINOGEN DOSE (STUDY DURATION: 16 WK), Route [Inhibitor]: GAVAGE, Species: MOUSE, Strain/Sex: STRAIN-A/FEMALE, Target Tissue: Type of Lesion: LUNG: ADENOMA, Dose [Carcinogen]: 10 UMOL IN 0.1 ML SALINE ONCE
  tumour outcome (control, treated, inhibition, significance): 100%, 100%, 0%, not significant
0.2 UMOL ONCE 2 HR PRIOR TO CARCINOGEN DOSE (STUDY DURATION: 16 WK), Route [Inhibitor]: GAVAGE, Species: MOUSE, Strain/Sex: STRAIN-A/FEMALE, Target Tissue: Type of Lesion: LUNG: ADENOMA, Dose [Carcinogen]: 10 UMOL IN 0.1 ML SALINE ONCE
  tumour outcome (control, treated, inhibition, significance): 100%, 100%, 0%, not significant
1 UMOL/G DIET FOR DURATION OF STUDY BEGINNING 1 WK PRIOR TO CARCINOGEN TREATMENT (STUDY DURATION: 112 WK), Route [Inhibitor]: ORAL, Species: RAT, Strain/Sex: F344/MALE, Target Tissue: Type of Lesion: HEMATOPOIETIC SYSTEM: LEUKEMIA OR LYMPHOMA, Dose [Carcinogen]: 2 PPM IN DRINKING WATER FOR 111 WK
  tumour outcome (control, treated, inhibition, significance): 26/56 (46%), 11/57 (19%), 59%, p=0.002
1 UMOL/G DIET FOR DURATION OF STUDY BEGINNING 1 WK PRIOR TO CARCINOGEN TREATMENT (STUDY DURATION: 112 WK), Route [Inhibitor]: ORAL, Species: RAT, Strain/Sex: F344/MALE, Target Tissue: Type of Lesion: LIVER: ADENOMA, Dose [Carcinogen]: 2 PPM IN DRINKING WATER FOR 111 WK
  tumour outcome (control, treated, inhibition, significance): 2/55 (4%), 4/50 (8%), -100%, not significant
1 UMOL/G DIET FOR DURATION OF STUDY BEGINNING 1 WK PRIOR TO CARCINOGEN TREATMENT (STUDY DURATION: 112 WK), Route [Inhibitor]: ORAL, Species: RAT, Strain/Sex: F344/MALE, Target Tissue: Type of Lesion: LIVER: CARCINOMA, Dose [Carcinogen]: 2 PPM IN DRINKING WATER FOR 111 WK
  tumour outcome (control, treated, inhibition, significance): 3/55 (5%), 1/50 (2%), 60%, not significant
1 UMOL/G DIET FOR DURATION OF STUDY BEGINNING 1 WK PRIOR TO CARCINOGEN TREATMENT (STUDY DURATION: 112 WK), Route [Inhibitor]: ORAL, Species: RAT, Strain/Sex: F344/MALE, Target Tissue: Type of Lesion: LUNG: ADENOCARCINOMA, Dose [Carcinogen]: 2 PPM IN DRINKING WATER FOR 111 WK
  tumour outcome (control, treated, inhibition, significance): 23/56 (41%), 9/57 (16%), 61%, p=0.003
1 UMOL/G DIET FOR DURATION OF STUDY BEGINNING 1 WK PRIOR TO CARCINOGEN TREATMENT (STUDY DURATION: 112 WK), Route [Inhibitor]: ORAL, Species: RAT, Strain/Sex: F344/MALE, Target Tissue: Type of Lesion: LUNG: ADENOMA, Dose [Carcinogen]: 2 PPM IN DRINKING WATER FOR 111 WK
  tumour outcome (control, treated, inhibition, significance): 16/56 (29%), 6/57 (11%), 62%, p=0.015
1 UMOL/G DIET FOR DURATION OF STUDY BEGINNING 1 WK PRIOR TO CARCINOGEN TREATMENT (STUDY DURATION: 112 WK), Route [Inhibitor]: ORAL, Species: RAT, Strain/Sex: F344/MALE, Target Tissue: Type of Lesion: NASAL CAVITY: PAPILLOMA OR CARCINOMA, Dose [Carcinogen]: 2 PPM IN DRINKING WATER FOR 111 WK
  tumour outcome (control, treated, inhibition, significance): 1/48 (2%), 2/45 (4%), -100%, not significant
